Patent US20230099803A1, “OXAZOLIDINONE FOR TREATMENT OF INFECTIONS WITH MYCOBACTERIUM TUBERCULOSIS” (priority 2017, published 2023)

Tested on: Mycobacterium tuberculosis
Type: cell-based
Details: 5x and 10x MIC90 of T145, 5 weeks of incubation

CC(=O)NC[C@H]1CN(c2ccc3c(c2)Oc2ccccc2O3)C(=O)O1 [T145, N-(((S)-3-(dibenzo[b,e][1,4]dioxin-7-yl)-2-oxooxazolidin-5-yl)methyl)acetamide]
frequency of spontaneous mutants that confer resistance: 4.0 × 10^-8
